In patent US5445941A, “Method for screening anti-osteoporosis agents” (Eli Lilly and Company, priority 1993, dated 1995):
“Also recorded” adds a separate entry of the source.

How the values were obtained:
TGFβ-3 promoter [1] = assay: TGFβ-3 activation in MCF-7 cells (pTGFβ-301LUC, luciferase); format: cell-based, human; settings: 24 h, 0 M 7.8
Procedure: Cultures of MCF-7 cells were transiently transfected with pTGFβ-301LUCas described in Example IV.
After 24 hours of treatment with the hormonal preparation (or the vehicle control), the cells were washed, harvested, lysed and assayed for LUC activity according to the method of Example VI.

[2] = animal models and humans; cited from earlier work
TGFβ-3 promoter [3] = assay: Dose response of TGFβ-3 promoter (pB-301) CAT induction in MG63 cells with pRSVER; settings: for CAT activity: vehicle 0.85
Procedure: For each group of twelve cultures, the particular estrogen or antiestrogen compound was tested in replicate cultures at […], varying in tenfold increments from 10^-9 M to 10^-5 M, as well as one set of replicate cultures treated with vehicle only (for a total of twelve cultures per experimental treatment). Hormones were dissolved in ethanol and applied to the cultures in media as described above. The four estrogens and antiestrogens tested were:
a. 17β-estradiol (Sigma Chemical Corp., St. Louis, Mo.);

TGFβ-3 promoter [4] = assay: TGFβ-3 activation in CHO cells (pB-301 and pRSVER, CAT); format: cell-based, hamster; settings: 24 h, 0 M 10.6
LDL receptor promoter [5] = assay: LDLR-Luc production in presence of ER (pLDLRLUC10 and pRSVER, HepG2 cells); format: cell-based, human; settings: listed as estrogen
Source text: (§1) A 1546 base pair sequence of the human LDL receptor promoter was amplified using the polymerase chain reaction. A reaction mixture containing 20 picomoles each of the synthetic oligonucleotides:
(§2) The 1546 base pair fragment described above was isolated and cloned into the vector pSv2 containing firefly luciferase reporter gene that had been restriction enzyme digested to completion with NdeI and partially with HindIII. The resulting vector, pLDLRLUC10 contains the human LDL receptor promoter directing expression of the firefly luciferase gene, an ampicillin resistance marker and an origin of replication.
ATCC strain HepG2 cells were co-transfected with pLDLRLUC10 and pRSVER as described in Example IV.

TGFβ-3 promoter [6] = assay: CAT reporter expression, TGFβ-3 promoter (pB-499), MG63 cells cotransfected with pRSVER
Procedure: (§3) Co-transfection experiments were performed in MG63 (human osteosarcoma) cells, using the ProFection Mammalian Transfection System (Promega). […] The cells were then refed with fresh 3:1 media containing 10% csFBS. Compounds to be evaluated for their ability to modulate reporter gene expression were added at the appropriate times and assayed as described below.
(§4) Cultures of MG63 cells were transiently co-transfected with pRSVER plasmid and either phTG12, pTGF-1, or pB2-499 using the ProFection system (Promega). For each transfected cell culture, DNA-containing calcium phosphate precipitates were added dropwise to each culture dish and mixed thoroughly in the media. The pH of the media was carefully maintained between pH 7.2 and pH 7.4. Transfected cell cultures were then incubated overnight in a 5% CO2 atmosphere at 37° C. For all cultures, the precipitate was removed after overnight incubation by aspirating the media from the culture dishes, followed by rinsing each dish twice with D-PBS. For each cotransfected cell line, the buffer was replaced with 10 ml fresh medium containing 10% csFBS and one of the following compositions:
(§5) a. 10 μl ethanol (hormone vehicle)=control;
(§6) b. 10 μl 17β-estradiol (Sigma) ("estradiol") at a concentration of 10^-4 M in ethanol;
(§7) d. 10 μl Tamoxifen (Sigma) at a concentration of 10^-4 M in ethanol.
(§8) After 24 h incubation with these hormonal preparations (or the vehicle control), cells were washed twice with D-PBS. The cells were then scraped from the culture dishes using a rubber policeman and 1 ml of D-PBS. Cells were collected by centrifugation at 8,000 rpm for 2 minutes in a tabletop centrifuge (MicroMax Model, IEC, Newark, N.Y.). The supernatant was removed and the cell pellets were resuspended in 150 μL of a 0.25M Tris-HCl solution (pH 7.8). Cells were lysed by three cycles of freezing in a dry ice/ethanol bath and thawing in a water bath at 37° C. water bath (for 3 minutes each cycle). Lysed cell preparations were centrifuged at 15,000 rpm for 5 minutes at 4° C. to remove cell debris. Supernatants containing the soluble cell lysate were transferred to a new set of tubes for assaying chloramphenicol acetyltransferase (CAT) activity.
(§9) Before performing CAT assays on such cell lysates, the protein content of each lysate was first determined using a commercially-available assay (BioRad Laboratories, Richmond, Calif.). […]

LDL receptor promoter [7] = assay: LDLR-Luc production in the absence of ER (pLDLRLUC10 and pRSV vector, HepG2 cells); format: cell-based, human; settings: for LDLR-Luc production: no ER, 0 M 1597
Source text: as §1, §2
ATCC strain HepG2 cells were co-transfected with pLDLRLUC10 and pRSV vector plasmid as described in Example IV.

TGFβ-3 promoter [8] = assay: Reporter induction, pB-301 (TGFβ-3 promoter) and pRSVER in MG63 cells; format: cell-based, human; settings: control 0.7
Procedure: These assays were performed essentially as in Example V.
Transfected cells were treated with varying amounts and combinations of hormones and then rinsed twice with D-PBS. Cells were then lysed upon incubation with 250 μL of eukaryotic cell lysis reagent (as described in Example VI) at 4° C. for 20 min and transferred to microcentrifuge tubes by scraping with a rubber policeman. Cell lysates were centrifuged at 14,000 rpm for 1 minute to remove cell debris. Cell extracts (supernatant) were then assayed for protein content and luciferase activities.
Luciferase assays were performed as follows. 50 μL of each cell extract was added to 100 μL of reagent A buffer (containing 4.0 mM ATP/15 mM MgSO4 / 30 mM tricine buffer (pH 7.8)/ 10 mM DTT) in individual wells of a microtiter plate. 100 μL of 1 mM D(-)-luciferin (in 0.1M KPO4 (pH 7.8); Boehringer Mannheim) were added to each well and the amount of light produced measured by using a ML3000 microtiter plate luminometer (under conditions of integrate flash mode, high gain, integrate window=10 seconds, at a temperature of 22° C.). Luciferase activities were calculated as total light output relative to protein content in each cell lysate sample.

[9] = system: estrogen responsive elements; settings: in vitro; cited from earlier work
TGFβ-3 promoter [10] = assay: ER dependent induction of TGFβ-3 promoter (pB2-499) in MG63 cells; format: cell-based, human
Source text: It was known in the prior art that the ability of both estrogens and antiestrogens to influence TGFβ production is dependent on the expression of estrogen receptor (ER), but the level at which this influence is exerted was not known (i.e. transcriptional, translational or post-translational). A series of experiments were therefore performed to investigate the putative dependence on ER expression of induction of reporter gene expression using the TGFβ promoter-containing constructs of the invention.
Cultures of MG63 were prepared for co-transfection as in Example IV. One such culture was co-transfected with pB2-499 and pRSVER and another was co-transfected with pB2499 and pRSV vector plasmid (as a control).
(b) 17β-estradiol (10^-7 M)

TGFβ-2 promoter = assay: CAT reporter expression, TGFβ-2 promoter (pTGF-1), MG63 cells cotransfected with pRSVER; settings: TGFβ-2 promoter
Procedure: as §3, §4, §5, §6, §7, §8, §9

SMILES: C[C@]12CC[C@@H]3c4ccc(O)cc4CC[C@H]3[C@@H]1CC[C@@H]2O [estradiol, 17β-estradiol]
- Luciferase activity (TGFβ-3 promoter [1]; 10^-5 M): 122 thousands of units
- Luciferase activity (TGFβ-3 promoter [1]; 10^-6 M): 101.3 thousands of units
- Luciferase activity (TGFβ-3 promoter [1]; 10^-7 M): 107.3 thousands of units
- Luciferase activity (TGFβ-3 promoter [1]; 10^-8 M): 9.1 thousands of units
- Luciferase activity (TGFβ-3 promoter [1]; 10^-9 M): 19.2 thousands of units
- serum lipid lowering effect (in words) [2]: serum lipid lowering effect
- CAT activity (TGFβ-3 promoter [3]; 10^-5 M, 24 h): 3.4
- CAT activity (TGFβ-3 promoter [3]; 10^-6 M, 24 h): 4.3
- CAT activity (TGFβ-3 promoter [3]; 10^-7 M, 24 h): 1.6
- CAT activity (TGFβ-3 promoter [3]; 10^-8 M, 24 h): 1.1
- CAT activity (TGFβ-3 promoter [3]; 10^-9 M, 24 h): 0.96
- ED50 (in words) (TGFβ-3 promoter [3]; MG63 cells): two orders of magnitude higher than that of raloxifene
- TGFβ-3 promoter activation (in words) (TGFβ-3 promoter [3]; MG63 cells): least potent inducer
- induction of reporter gene transcription/expression (TGFβ-3 promoter [3]; mg63 cells, 24 h): 4 fold
- CAT activity (TGFβ-3 promoter [4]; 10^-5 M): 33.3
- CAT activity (TGFβ-3 promoter [4]; 10^-6 M): 32.9
- CAT activity (TGFβ-3 promoter [4]; 10^-7 M): 29.4
- CAT activity (TGFβ-3 promoter [4]; 10^-8 M): 22.6
- CAT activity (TGFβ-3 promoter [4]; 10^-9 M): 11.9
- induction of LDL receptor promoter/expression (in words) (LDL receptor promoter [5]): mediated by ER; also recorded: have the ability to induce LDL receptor expression
- fold induction at 0.1 µM (TGFβ-3 promoter [6]; Homo sapiens, MG-63, 24 h, read-out: Fold Ind.): 2.8
- Act. (relative CAT activity) (TGFβ-3 promoter [6]; TGFβ-3 promoter, 10 μl of 10^-4 M in 10 ml medium, 24 h, control 0.7): 2.1
- induction of LDLR promoter without ER (in words) (LDL receptor promoter [7]; at or below 10^-6 M, or high concentrations as worded, FIG. 16): No induction
- LDLR-Luc production (LDL receptor promoter [7]; 10^-5 M): 2445
- LDLR-Luc production (LDL receptor promoter [7]; 10^-6 M): 1578
- LDLR-Luc production (LDL receptor promoter [7]; 10^-7 M): 1574
- LDLR-Luc production (LDL receptor promoter [7]; 10^-8 M): 1792
- LDLR-Luc production (LDL receptor promoter [7]; 10^-9 M): 1645
- reporter gene expression, pB-301 (TGFβ-3 promoter [8]; 10^-5 M): 8.0
- reporter gene expression, pB-301 (TGFβ-3 promoter [8]; 10^-6 M): 5.2
- reporter gene expression, pB-301 (TGFβ-3 promoter [8]; 10^-7 M): 5.5
- reporter gene expression, pB-301 (TGFβ-3 promoter [8]; 10^-8 M): 3.2
- reporter gene expression, pB-301 (TGFβ-3 promoter [8]; 10^-9 M): 1.1
- binding of estrogen receptor complex to estrogen responsive elements (in words) [9]: bind in vitro to DNA binding domains called estrogen responsive elements
- effect of lack of ER expression (in words) (TGFβ-3 promoter [10]; lack of ER expression): virtually abolishes expression of TGFβ-3
- reporter gene expression, Control Plasmid (TGFβ-3 promoter [10]; no ER (pRSV vector), estradiol 10^-7 M, raloxifene 2×10^-6 M, vehicle 0.9): 1.0
- reporter gene expression, ER Expression Plasmid (TGFβ-3 promoter [10]; pRSVER, estradiol 10^-7 M, raloxifene 2×10^-6 M, vehicle 1.3): 4.6
- Act. (relative CAT activity) (TGFβ-2 promoter; 10 μl of 10^-4 M in 10 ml medium, 24 h, control 0.8): 1.29
- Fold Ind. (TGFβ-2 promoter; comparison with control, 1440 min, 0.1 µM): 1.6 fold
